Data published in patent US8841321B2, “Quinoline derivatives as antibacterial agents” (Janssen Pharmaceutica NV, priority 2005, dated 2014).
≈ marks a conversion by molar mass, not a printed value.

How the values were obtained:
Assay in all cases: Microtitre plate assay, IC90 determination
Format in all cases: cell-based
[1] = system: STA RMETH (methicilline resistant Staphylococcus aureus (MRSA), a clinical isolate from the University of Antwerp); details: for IC90: Staphylococcus aureus, MRSA, read-out: IC90 (μg/ml) STA RMETH
[2] = system: STA 29213 (Staphylococcus aureus (ATCC29213)); details: for IC90 (μg/ml) STA 29213: Staphylococcus aureus (ATCC29213)
Method: (§1) The bacteria used in this study were grown overnight in flasks containing 100 ml Mueller-Hinton Broth (Becton Dickinson—cat. no. 275730) in sterile de-ionized water, with shaking, at 37° C. Stocks (0.5 ml/tube) were stored at −70° C. until use. Bacteria titrations were performed in microtiter plates and colony forming units (CFUs) were determined. In general, an inoculum level of approximately 100 CFUs was used for susceptibility testing.
(§2) Flat-bottom, sterile 96-well plastic microtiter plates were filled with 180 μl of sterile deionized water, supplemented with 0.25% BSA. Subsequently, stock solutions (7.8× final test concentration) of compounds were added in 45 μl volumes in column 2. Serial five-fold dilutions (45 μl in 180 μl) were made directly in the microtiter plates from column 2 to reach column 11. Untreated control samples with (column 1) and without (column 12) inoculum were included in each microtiter plate. Depending on the bacteria type, approximately 10 to 60 CFU per well of bacteria inoculum (100 TCID50), in a volume of 100 μl in 2.8× Mueller-Hinton broth medium, was added to the rows A to H, except column 12. The same volume of broth medium without inoculum was added to column 12 in row A to H. The cultures were incubated at 37° C. for 24 hours under a normal atmosphere (incubator with open air valve and continuous ventilation). At the end of incubation, one day after inoculation, the bacterial growth was quantitated fluorometrically. Therefore resazurin (0.6 mg/ml) was added in a volume of 20 μl to all wells 3 hours after inoculation, and the plates were re-incubated overnight. A change in colour from blue to pink indicated the growth of bacteria. The fluorescence was read in a computer-controlled fluorometer (Cytofluor Biosearch) at an excitation wavelength of 530 nm and an emission wavelength of 590 nm. The % growth inhibition achieved by the compounds was calculated according to standard methods. The IC90 (expressed in μg/ml) was defined as the 90% inhibitory concentration for bacterial growth.

[3] = system: SPN 6305 (Streptococcus pneumoniae (ATCC6305)); details: for IC90 (μg/ml) SPN 6305: Streptococcus pneumoniae (ATCC6305); for IC90: Streptococcus pneumoniae, ATCC6305, Streptococcus pneumoniae (ATCC6305), read-out: IC90 (μg/ml) SPN 6305
Method: as §1, §2

[4] = system: SPY 8668 (Streptococcus pyogens (ATCC8668)); details: Streptococcus pyogens (ATCC8668)

| SMILES | IC90 (μg/ml) STA RMETH [1] [µg/mL] | IC90 (μg/ml) STA 29213 [2] [µg/mL] | IC90 (μg/ml) SPN 6305 [3] [µg/mL] | IC90 [3] [µg/mL] | IC90 [1] [µg/mL] | IC90 ([2]; Staphylococcus aureus, ATCC29213, Staphylococcus aureus (ATCC29213), read-out: IC90 (μg/ml) STA 29213) [µg/mL] | IC90 (μg/ml) SPY 8668 [4] [µg/mL] |
| --- | --- | --- | --- | --- | --- | --- | --- |
| COc1nc2ccc(Br)cc2cc1C(c1ccccc1)C(O)(CCCCN1CCN(C)CC1)CCC1CCCCC1 (single isomer, unassigned) [Compound 126] | 5.55 (≈ 8.91 µM) | 4.41 (≈ 7.08 µM) | 2.21 (≈ 3.55 µM) | – | – | – | – |
| COc1nc2ccc(Br)cc2cc1C(c1ccccc1)C(O)(CCCCN1CCCCC1)c1ccc2ccccc2c1 (racemic) [Compound 96] | 9.88 (≈ 15.8 µM) | 4.42 (≈ 7.09 µM) | 2.21 (≈ 3.54 µM) | – | – | – | – |
| CCN(CC)CCCCC(O)(c1ccc2ccccc2c1)C(c1ccccc1)c1cc2cc(Br)ccc2nc1OC (racemic) [Compound 85] | 12.2 (≈ 19.9 µM) | 1.93 (≈ 3.16 µM) | 1.93 (≈ 3.16 µM) | – | – | – | – |
| COc1nc2ccc(Br)cc2cc1C(c1ccccc1)C(O)(CCCCN1CCNCC1)c1ccccc1 (racemic) [Compound 105] | 11.46 (≈ 19.9 µM) | 2.04 (≈ 3.55 µM) | 2.29 (≈ 3.99 µM) | – | – | – | – |
| COc1nc2ccccc2cc1C(c1ccc(-c2ccccc2)cc1)C(O)(CCCCN(C)C)c1ccc2ccccc2c1 (centres unmarked) [Compound 56] | 5.81 (≈ 10 µM) | 1.84 (≈ 3.17 µM) | – | 2.31 (≈ 3.98 µM) | – | – | – |
| CCN(CC)CCCCC(O)(c1ccc2ccccc2c1)C(c1ccccc1)c1cc2cc(Br)ccc2nc1OC (racemic) [Compound 86] | 2.17 (≈ 3.55 µM) | 2.17 (≈ 3.55 µM) | 2.43 (≈ 3.97 µM) | – | – | – | – |
| COc1nc2ccc(Br)cc2cc1C(c1ccccc1)C(O)(CCCCN1CCNCC1)CCc1ccccc1 (single isomer, unassigned) [Compound 135] | 12.02 (≈ 19.9 µM) | 1.91 (≈ 3.17 µM) | 2.4 (≈ 3.98 µM) | – | – | – | – |
| CCN(CC)CCCCC(O)(CCc1ccccc1)C(c1ccccc1)c1cc2cc(Br)ccc2nc1OC (single isomer, unassigned) [Compound 132] | 11.76 (≈ 19.9 µM) | 2.09 (≈ 3.54 µM) | 2.09 (≈ 3.54 µM) | – | – | – | – |
| CSc1nc2ccc(Br)cc2cc1C(c1ccccc1)C(O)(CCCCN(C)C)c1ccc2c(c1)OCO2 (racemic) [Compound 87] | 2.36 (≈ 3.98 µM) | 1.88 (≈ 3.17 µM) | 2.36 (≈ 3.98 µM) | – | – | – | – |
| COc1nc2c(C)c(Br)ccc2cc1C(c1ccccc1)C(O)(CCCCN(C)C)c1ccc2ccccc2c1 (racemic) [Compound 80] | 2.38 (≈ 3.98 µM) | 1.89 (≈ 3.16 µM) | 2.12 (≈ 3.55 µM) | – | – | – | – |
| COc1nc2ccc(Br)cc2cc1C(c1ccccc1)C(O)(CCCCN(C)C(C)C)c1ccccc1 (single isomer, unassigned) [Compound 91] | 12.57 (≈ 22.4 µM) | 2.24 (≈ 3.99 µM) | 2.51 (≈ 4.47 µM) | – | – | – | – |
| COc1nc2ccc(Br)cc2cc1C(c1ccccc1)C(O)(CCCCN1CCC(N(C)C)CC1)CCc1ccccc1 (single isomer, unassigned) [Compound 139] | 12.86 (≈ 19.9 µM) | 4.56 (≈ 7.07 µM) | 5.12 (≈ 7.94 µM) | – | – | – | – |
| CCN(CC)CCCCC(O)(CCc1cccc2ccccc12)C(c1ccccc1)c1cc2cc(Br)ccc2nc1OC (centres unmarked) [Compound 73] | – | – | – | 2.55 (≈ 3.99 µM) | 2.55 (≈ 3.99 µM) | 2.02 (≈ 3.16 µM) | – |
| COc1nc2ccc(Br)cc2cc1C(c1ccccc1)C(O)(CCCCN1CCNCC1)c1ccccc1 (racemic) [Compound 104] | 12.86 (≈ 22.4 µM) | 1.82 (≈ 3.17 µM) | 2.04 (≈ 3.55 µM) | – | – | – | – |
| COc1nc2ccccc2cc1C(c1ccc(-c2ccccc2)cc1)C(O)(CCCCN(C)C)c1ccc2ccccc2c1 (centres unmarked) [Compound 57] | 2.59 (≈ 4.46 µM) | 4.11 (≈ 7.08 µM) | 2.31 (≈ 3.98 µM) | – | – | – | – |
| COc1nc2ccc(Br)cc2cc1C(c1ccccc1)C(O)(CCCCN1CCC(N(C)C)CC1)CCc1ccccc1 (single isomer, unassigned) [Compound 140] | 2.57 (≈ 3.99 µM) | 4.56 (≈ 7.07 µM) | 4.56 (≈ 7.07 µM) | – | – | – | – |
| COc1nc2ccc(-c3ccco3)cc2cc1C(c1ccccc1)C(O)(CCCCN(C)C)c1ccccc1 (racemic) [Compound 82] | 10.39 (≈ 20 µM) | 1.65 (≈ 3.17 µM) | 1.65 (≈ 3.17 µM) | – | – | – | – |
| COc1nc2ccc(Br)cc2cc1C(c1ccccc1)C(O)(CCCCN(C)C)CCc1ccccc1 (single isomer, unassigned) [Compound 131] | 11.2 (≈ 19.9 µM) | 1.78 (≈ 3.17 µM) | 2.24 (≈ 3.99 µM) | – | – | – | – |
| COc1nc2ccc(Br)cc2cc1C(c1ccccc1)C(O)(CCCCN1CCCCC1)CCc1ccccc1.Cl (single isomer, unassigned) [Compound 133] | 12 | 1.9 | 2.13 | – | – | – | – |
| COc1nc2ccc(Br)cc2cc1C(c1ccccc1)C(O)(CCCCN1CCNCC1)CCc1ccccc1 (single isomer, unassigned) [Compound 136] | 5.37 (≈ 8.91 µM) | 1.91 (≈ 3.17 µM) | 2.4 (≈ 3.98 µM) | – | – | – | – |
| COc1nc2ccc(Br)cc2cc1C(c1ccccc1)C(O)(CCCCN1CCN(C)CC1)CCc1cccc2ccccc12 (single isomer, unassigned) [Compound 142] | 2.37 (≈ 3.55 µM) | 2.65 (≈ 3.97 µM) | 2.37 (≈ 3.55 µM) | – | – | – | – |
| COc1nc2ccc(Br)cc2cc1C(c1ccccc1)C(O)(CCCCN1CCCCC1)CC(C)C (racemic) [Compound 122] | 11.05 (≈ 20 µM) | 1.75 (≈ 3.16 µM) | 1.96 (≈ 3.54 µM) | – | – | – | – |
| COc1nc2ccc(Br)cc2cc1C(c1ccccc1)C(O)(CCCCN1CCCCC1)CCc1ccccc1 (single isomer, unassigned) [Compound 134] | 12 (≈ 19.9 µM) | 4.26 (≈ 7.08 µM) | 2.13 (≈ 3.54 µM) | – | – | – | – |
| COc1nc2ccccc2cc1C(c1ccccc1)C(O)(CCCCN(C)C)c1ccc2ccccc2c1 (centres unmarked) [Compound 37] | – | 2.0 (≈ 3.96 µM) | 1.8 (≈ 3.57 µM) | – | 10.1 (≈ 20 µM) | – | – |
| COc1nc2ccc(-c3ccco3)cc2cc1C(c1ccccc1)C(O)(CCCCN(C)C)c1ccccc1 (racemic) [Compound 83] | 5.21 (≈ 10 µM) | 1.65 (≈ 3.17 µM) | 1.65 (≈ 3.17 µM) | – | – | – | – |
| COc1nc2ccc(-c3ccco3)cc2cc1C(c1ccccc1)C(O)(CCCCN(C)C)c1ccc2ccccc2c1 (centres unmarked) [Compound 39] | – | 2.0 (≈ 3.5 µM) | 3.6 (≈ 6.31 µM) | – | 4.5 (≈ 7.88 µM) | – | – |
| COc1nc2ccc(Br)cc2cc1C(c1ccccc1)C(O)(CCCCN(C)C)c1cccc(F)c1 (racemic) [Compound 84] | 11 (≈ 19.9 µM) | 1.74 (≈ 3.16 µM) | 9.81 (≈ 17.8 µM) | – | – | – | – |
| COc1nc2ccc(Br)cc2cc1C(c1ccccc1)C(O)(CCCCN(C)Cc1ccccc1)c1ccc2ccccc2c1 (racemic) [Compound 76] | – | – | 2.34 (≈ 3.55 µM) | – | – | – | 10.46 (≈ 15.9 µM) |
